The text below walks through data of ChEMBL document CHEMBL5653631, “A Potent and Selective ULK1 Inhibitor Suppresses Autophagy and Sensitizes Cancer Cells to Nutrient Stress” (iScience, 2018).

Molecules are shown by their SMILES.

For assay [1], the target named is T1, TGF-beta receptor type-1 (Homo sapiens) (UniProt P36897).
T1 sequence (whole entry): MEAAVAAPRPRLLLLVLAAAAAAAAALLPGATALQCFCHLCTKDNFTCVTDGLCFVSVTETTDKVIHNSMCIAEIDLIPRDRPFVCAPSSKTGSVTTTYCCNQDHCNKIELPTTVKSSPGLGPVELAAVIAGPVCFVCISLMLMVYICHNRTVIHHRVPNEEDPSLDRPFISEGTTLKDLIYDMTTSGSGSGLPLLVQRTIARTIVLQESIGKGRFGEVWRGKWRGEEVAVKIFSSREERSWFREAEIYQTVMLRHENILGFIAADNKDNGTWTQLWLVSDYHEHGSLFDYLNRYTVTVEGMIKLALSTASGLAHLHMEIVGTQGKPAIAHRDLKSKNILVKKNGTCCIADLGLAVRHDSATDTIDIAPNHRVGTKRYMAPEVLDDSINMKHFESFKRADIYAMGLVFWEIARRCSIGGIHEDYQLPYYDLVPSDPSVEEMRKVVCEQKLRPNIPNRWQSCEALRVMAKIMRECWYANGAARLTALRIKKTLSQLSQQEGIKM
Description: Inhibition of human recombinant TGFbR1 at 15 nM related to control ULK1.

Assay [2] addresses T2, Serine/threonine-protein kinase DCLK2 (Homo sapiens) (UniProt Q8N568).
T2 sequence (whole entry): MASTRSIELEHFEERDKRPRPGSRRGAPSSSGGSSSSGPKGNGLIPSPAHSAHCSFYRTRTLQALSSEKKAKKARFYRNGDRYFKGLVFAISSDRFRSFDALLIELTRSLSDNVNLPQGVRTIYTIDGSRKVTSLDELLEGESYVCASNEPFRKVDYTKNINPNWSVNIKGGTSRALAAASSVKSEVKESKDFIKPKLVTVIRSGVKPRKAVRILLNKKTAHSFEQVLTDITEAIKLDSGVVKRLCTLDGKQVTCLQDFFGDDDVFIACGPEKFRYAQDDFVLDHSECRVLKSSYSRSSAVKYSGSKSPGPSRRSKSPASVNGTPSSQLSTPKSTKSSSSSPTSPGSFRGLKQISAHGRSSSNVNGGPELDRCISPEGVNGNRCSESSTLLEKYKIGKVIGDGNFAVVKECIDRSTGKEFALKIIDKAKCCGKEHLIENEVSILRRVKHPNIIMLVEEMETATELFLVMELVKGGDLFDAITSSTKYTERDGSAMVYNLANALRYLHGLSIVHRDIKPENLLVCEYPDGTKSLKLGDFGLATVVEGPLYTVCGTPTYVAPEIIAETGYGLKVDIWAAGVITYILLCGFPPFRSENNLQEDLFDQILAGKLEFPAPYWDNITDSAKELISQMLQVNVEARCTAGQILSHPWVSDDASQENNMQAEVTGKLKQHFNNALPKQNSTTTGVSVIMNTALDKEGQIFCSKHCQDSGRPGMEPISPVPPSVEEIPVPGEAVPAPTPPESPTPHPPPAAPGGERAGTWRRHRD
Description: Inhibition of human recombinant DCAMKL2 at 15 nM related to control ULK1.

The target in assay [3] is T3, Protein kinase C zeta type (Homo sapiens) (UniProt Q05513).
T3 sequence (whole entry): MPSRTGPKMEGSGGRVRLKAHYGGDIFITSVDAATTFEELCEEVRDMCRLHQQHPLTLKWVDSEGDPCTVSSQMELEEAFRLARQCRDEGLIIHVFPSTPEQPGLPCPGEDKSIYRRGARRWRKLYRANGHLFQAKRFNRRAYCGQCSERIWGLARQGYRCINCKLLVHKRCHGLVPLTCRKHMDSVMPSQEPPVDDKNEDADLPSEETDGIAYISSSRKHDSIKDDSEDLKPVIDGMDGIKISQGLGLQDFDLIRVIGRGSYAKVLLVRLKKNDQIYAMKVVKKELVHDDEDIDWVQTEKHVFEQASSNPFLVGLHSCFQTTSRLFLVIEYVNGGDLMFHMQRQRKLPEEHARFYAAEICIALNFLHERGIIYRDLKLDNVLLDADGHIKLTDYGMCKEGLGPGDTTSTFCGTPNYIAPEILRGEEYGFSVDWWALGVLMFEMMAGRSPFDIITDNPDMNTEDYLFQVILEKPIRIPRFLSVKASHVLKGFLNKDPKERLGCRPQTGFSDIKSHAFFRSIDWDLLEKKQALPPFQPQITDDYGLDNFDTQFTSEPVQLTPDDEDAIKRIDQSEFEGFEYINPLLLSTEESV
Briefly: Inhibition of human recombinant PKCz at 15 nM related to control ULK1.

Assay [4] concerns the target Serine/threonine-protein kinase MARK2 (Homo sapiens) (UniProt Q7KZI7). Description: Inhibition of human recombinant MARK2 at 15 nM in presence of ATP by radiometric assay relative to control.
The target in assay [5] is Leukocyte tyrosine kinase receptor (Homo sapiens) (UniProt P29376). Briefly: Inhibition of human recombinant LTK at 500 nM related to control ULK1.
The target in assay [6] is Serine/threonine-protein kinase SIK3 (Homo sapiens) (UniProt Q9Y2K2). Briefly: Inhibition of human recombinant QSK at 500 nM in presence of ATP by radiometric assay relative to control.
For assay [7], the target named is Tyrosine-protein kinase Yes (Homo sapiens) (UniProt P07947). Description: Inhibition of human recombinant YES at 500 nM related to control ULK1.
The target in assay [8] is T4, cAMP-dependent protein kinase catalytic subunit PRKX (Homo sapiens) (UniProt P51817).
T4 sequence (whole entry): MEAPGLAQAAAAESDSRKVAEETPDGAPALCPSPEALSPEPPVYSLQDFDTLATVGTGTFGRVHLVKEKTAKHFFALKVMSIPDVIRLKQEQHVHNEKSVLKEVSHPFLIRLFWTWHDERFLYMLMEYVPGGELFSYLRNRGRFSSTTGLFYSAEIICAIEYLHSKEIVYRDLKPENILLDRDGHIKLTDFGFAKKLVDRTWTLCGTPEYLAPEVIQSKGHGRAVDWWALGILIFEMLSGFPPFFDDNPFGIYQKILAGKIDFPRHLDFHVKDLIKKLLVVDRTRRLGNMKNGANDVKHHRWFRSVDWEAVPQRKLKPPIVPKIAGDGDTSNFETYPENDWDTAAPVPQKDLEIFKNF
Briefly: Inhibition of human recombinant PRKX at 500 nM related to control ULK1.

Chain of Serine/threonine-protein kinase MARK2 (Homo sapiens) (Q7KZI7 whole entry): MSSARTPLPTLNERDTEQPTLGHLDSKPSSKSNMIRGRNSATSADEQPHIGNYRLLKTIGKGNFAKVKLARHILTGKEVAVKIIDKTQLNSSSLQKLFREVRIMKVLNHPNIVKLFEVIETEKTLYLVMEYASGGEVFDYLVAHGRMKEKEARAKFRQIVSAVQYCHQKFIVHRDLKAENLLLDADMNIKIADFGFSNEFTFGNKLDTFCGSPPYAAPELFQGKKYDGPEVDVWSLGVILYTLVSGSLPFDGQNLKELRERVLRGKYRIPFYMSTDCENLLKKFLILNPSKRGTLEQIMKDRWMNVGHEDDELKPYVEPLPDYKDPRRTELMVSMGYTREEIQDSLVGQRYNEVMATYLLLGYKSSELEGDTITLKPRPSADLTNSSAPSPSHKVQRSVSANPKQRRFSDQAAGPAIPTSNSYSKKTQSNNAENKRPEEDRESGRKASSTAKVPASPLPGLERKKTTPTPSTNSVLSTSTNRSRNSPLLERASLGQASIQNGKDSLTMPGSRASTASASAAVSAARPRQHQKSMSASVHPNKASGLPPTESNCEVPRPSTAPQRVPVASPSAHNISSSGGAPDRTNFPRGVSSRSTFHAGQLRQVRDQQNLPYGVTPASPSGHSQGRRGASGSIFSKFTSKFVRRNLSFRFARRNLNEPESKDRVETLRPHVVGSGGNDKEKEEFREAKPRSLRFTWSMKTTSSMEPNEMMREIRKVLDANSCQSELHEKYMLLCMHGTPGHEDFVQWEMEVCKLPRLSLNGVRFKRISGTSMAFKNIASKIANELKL
Chain of Leukocyte tyrosine kinase receptor (Homo sapiens) (P29376 whole entry): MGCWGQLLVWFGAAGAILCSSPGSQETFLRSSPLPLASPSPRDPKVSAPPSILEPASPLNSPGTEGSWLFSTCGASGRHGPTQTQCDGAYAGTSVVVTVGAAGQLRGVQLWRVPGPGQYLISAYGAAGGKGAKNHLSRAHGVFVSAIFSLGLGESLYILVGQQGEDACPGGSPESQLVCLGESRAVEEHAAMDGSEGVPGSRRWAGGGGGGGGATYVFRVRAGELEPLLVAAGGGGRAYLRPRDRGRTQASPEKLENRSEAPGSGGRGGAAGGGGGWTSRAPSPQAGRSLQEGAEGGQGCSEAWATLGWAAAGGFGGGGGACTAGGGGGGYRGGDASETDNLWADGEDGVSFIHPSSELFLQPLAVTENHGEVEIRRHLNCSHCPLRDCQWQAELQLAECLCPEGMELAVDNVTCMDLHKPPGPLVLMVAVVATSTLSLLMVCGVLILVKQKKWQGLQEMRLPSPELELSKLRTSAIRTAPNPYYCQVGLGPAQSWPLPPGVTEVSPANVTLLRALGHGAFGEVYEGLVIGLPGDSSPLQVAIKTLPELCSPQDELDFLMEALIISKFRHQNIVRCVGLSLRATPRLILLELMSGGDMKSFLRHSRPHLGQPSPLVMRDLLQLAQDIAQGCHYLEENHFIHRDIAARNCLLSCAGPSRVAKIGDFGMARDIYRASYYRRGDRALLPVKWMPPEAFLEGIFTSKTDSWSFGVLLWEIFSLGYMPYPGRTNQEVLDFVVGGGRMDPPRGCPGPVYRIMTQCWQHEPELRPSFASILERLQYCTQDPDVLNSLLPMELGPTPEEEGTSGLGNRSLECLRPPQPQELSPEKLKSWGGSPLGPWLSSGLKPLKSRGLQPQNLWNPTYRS
Chain of Tyrosine-protein kinase Yes (Homo sapiens) (P07947 2-543 limits assumed): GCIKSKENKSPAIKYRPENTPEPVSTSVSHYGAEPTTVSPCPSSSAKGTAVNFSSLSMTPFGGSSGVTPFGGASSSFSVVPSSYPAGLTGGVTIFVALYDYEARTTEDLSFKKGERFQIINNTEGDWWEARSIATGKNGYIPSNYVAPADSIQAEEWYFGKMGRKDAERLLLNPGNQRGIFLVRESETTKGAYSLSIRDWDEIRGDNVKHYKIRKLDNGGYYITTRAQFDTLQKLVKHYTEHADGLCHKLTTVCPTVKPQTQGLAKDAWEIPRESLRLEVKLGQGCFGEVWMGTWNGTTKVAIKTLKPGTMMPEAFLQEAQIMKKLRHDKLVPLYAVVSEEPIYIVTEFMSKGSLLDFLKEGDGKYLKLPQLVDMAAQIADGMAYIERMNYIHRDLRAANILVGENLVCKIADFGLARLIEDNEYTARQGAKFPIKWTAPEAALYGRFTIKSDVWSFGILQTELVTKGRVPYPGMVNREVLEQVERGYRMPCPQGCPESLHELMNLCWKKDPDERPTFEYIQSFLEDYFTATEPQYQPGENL
Chain of Serine/threonine-protein kinase SIK3 (Homo sapiens) (Q9Y2K2 whole entry, looked up): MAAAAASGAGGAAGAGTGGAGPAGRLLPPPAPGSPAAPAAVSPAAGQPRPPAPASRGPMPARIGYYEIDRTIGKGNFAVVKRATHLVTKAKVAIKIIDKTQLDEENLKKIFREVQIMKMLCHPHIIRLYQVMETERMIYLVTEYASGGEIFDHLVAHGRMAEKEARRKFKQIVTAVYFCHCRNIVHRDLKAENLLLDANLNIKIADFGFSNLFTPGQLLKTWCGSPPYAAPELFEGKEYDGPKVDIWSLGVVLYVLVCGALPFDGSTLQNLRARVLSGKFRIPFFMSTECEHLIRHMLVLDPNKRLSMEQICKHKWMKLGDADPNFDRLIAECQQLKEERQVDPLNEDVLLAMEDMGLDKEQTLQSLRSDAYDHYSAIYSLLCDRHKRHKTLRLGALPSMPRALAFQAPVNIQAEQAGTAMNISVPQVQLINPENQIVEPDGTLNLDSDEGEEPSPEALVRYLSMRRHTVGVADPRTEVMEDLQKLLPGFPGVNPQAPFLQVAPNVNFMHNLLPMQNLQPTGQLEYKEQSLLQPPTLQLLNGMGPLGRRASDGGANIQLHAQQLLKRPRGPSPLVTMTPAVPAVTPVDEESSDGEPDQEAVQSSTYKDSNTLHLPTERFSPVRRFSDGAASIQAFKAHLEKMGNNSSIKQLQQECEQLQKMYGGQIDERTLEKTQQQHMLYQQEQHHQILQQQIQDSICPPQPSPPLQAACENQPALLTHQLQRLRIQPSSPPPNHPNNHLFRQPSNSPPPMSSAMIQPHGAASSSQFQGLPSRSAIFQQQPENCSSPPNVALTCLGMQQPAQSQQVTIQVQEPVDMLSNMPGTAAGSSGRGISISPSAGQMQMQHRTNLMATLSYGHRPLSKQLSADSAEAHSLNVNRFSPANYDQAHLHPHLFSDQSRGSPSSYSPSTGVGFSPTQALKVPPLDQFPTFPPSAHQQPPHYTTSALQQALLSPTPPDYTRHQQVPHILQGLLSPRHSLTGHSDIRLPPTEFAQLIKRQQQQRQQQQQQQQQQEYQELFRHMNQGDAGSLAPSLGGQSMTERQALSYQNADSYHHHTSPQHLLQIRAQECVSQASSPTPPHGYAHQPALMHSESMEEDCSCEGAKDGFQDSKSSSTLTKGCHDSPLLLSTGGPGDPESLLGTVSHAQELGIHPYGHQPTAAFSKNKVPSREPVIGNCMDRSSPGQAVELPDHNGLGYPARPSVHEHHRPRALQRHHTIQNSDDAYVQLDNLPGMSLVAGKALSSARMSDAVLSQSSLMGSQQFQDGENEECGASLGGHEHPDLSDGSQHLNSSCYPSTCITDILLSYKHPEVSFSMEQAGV

In the case of `CC(C)[C@H](NC(=O)c1cc(-c2cnn3cc(-c4ccc(OCCN5CCCCC5)cc4)cnc23)cs1)C(F)(F)F`, the fold change (FC) in assay [1] turned out to be 0.05; in assay [2] it was 0.14; in assay [3] it was 0. Besides, the inhibition (as a rule, the relative decrease from the control value, in per cent) in assay [4] was 47%.
Consider `CNC(=O)c1ccccc1Oc1nc(Nc2cc(OC)c(OC)c(OC)c2)ncc1Br`, for which the results for the fold change (FC) in assay [5], in assay [7] and in assay [8] were 0.04, 0.89 and 0.22, respectively. Further, the inhibition in assay [6] turned out to be 8%.
